Experimental data: ChEMBL document CHEMBL3351766, “Asymmetric binding to NS5A by daclatasvir (BMS-790052) and analogs suggests two novel modes of HCV inhibition” (J Med Chem, 2014)
One block for each compound: values may come before it.

What was measured:
[1] = test system: Hepatitis C virus; assay: Antiviral activity against wild type HCV genotype 1b assessed as replication level; assay type: functional, Hepacivirus hominis; details: for EC50: Hepatitis C virus, genotype 1b
[2] = test system: Hepatitis C virus; assay: Antiviral activity against HCV genotype 1b expressing NS5A Y93H mutant assessed as replication level; assay type: functional, Hepacivirus hominis; details: for EC50: Hepatitis C virus, genotype 1b
[3] = test system: Hepatitis C virus; assay: Antiviral activity against HCV genotype 1b expressing NS5A L31F mutant assessed as replication level
[4] = test system: Hepatitis C virus; assay: Antiviral activity against HCV genotype 1b expressing NS5A L31M mutant assessed as replication level; assay type: functional, Hepacivirus hominis
[5] = test system: Hepatitis C virus; assay: Antiviral activity against HCV genotype 1b expressing NS5A L31V mutant assessed as replication level; assay type: functional, Hepacivirus hominis
[6] = test system: Hepatitis C virus; assay: Antiviral activity against HCV genotype 1b expressing NS5A L31M/Y93H mutant assessed as replication level; assay type: functional, Hepacivirus hominis
[7] = test system: Hepatitis C virus; assay: Antiviral activity against HCV genotype 1b expressing NS5A L31V/Y93H mutant assessed as replication level; assay type: functional, Hepacivirus hominis

SMILES: COC(=O)N[C@H](C(=O)N1CCC[C@H]1c1ncc(-c2ccc(N=[N+]=[N-])cc2)[nH]1)C(C)C
EC50 [2]: 8 nM

SMILES: COC(=O)N[C@H](C(=O)N1CCC[C@H]1c1nc(Br)c(-c2ccc(N=[N+]=[N-])cc2)[nH]1)C(C)C
EC50 [3]: 0.7 nM

SMILES: COC(=O)N[C@H](C(=O)N1CCC[C@H]1c1ncc(-c2ccc(-c3ccc(-c4cnc([C@@H]5CCCN5C(=O)[C@@H](NC(=O)OC)C(C)C)[nH]4)cc3)cc2)[nH]1)C(C)C [DACLATASVIR]
Activity [1]: 100% | EC50 [1]: 0.0026 nM | Activity [4]: 99% | EC50 ([4]; Hepatitis C virus, genotype 1b): 0.0084 nM | Activity [5]: 158% | EC50 ([5]; Hepatitis C virus, genotype 1b): 0.0717 nM | Activity [2]: 27% | EC50 [2]: 0.0623 nM | Activity [6]: 70% | EC50 ([6]; Hepatitis C virus, genotype 1b): 18.3 nM | Activity [7]: 50% | EC50 ([7]; Hepatitis C virus, genotype 1b): 38 nM

SMILES: COC(=O)N[C@H](C(=O)N1CCC[C@H]1c1ncc(-c2ccccc2)[nH]1)C(C)C
EC50 [1]: > 1000 nM

Further lines, results first:

EC50 [1]: 0.023 nM
SMILES: COC(=O)N[C@H](C(=O)N1C[C@@H](N=[N+]=[N-])C[C@H]1c1ncc(-c2ccc(-c3ccc(-c4cnc([C@@H]5C[C@H](N=[N+]=[N-])CN5C(=O)[C@@H](NC(=O)OC)C(C)C)[nH]4)cc3)cc2)[nH]1)C(C)C

EC50 [1]: 30 nM
SMILES: COC(=O)N[C@H](C(=O)N1CCC[C@H]1c1ncc(-c2ccc(Oc3ccc(-c4cnc([C@@H]5CCCN5C(=O)[C@@H](NC(=O)OC)C(C)C)[nH]4)cc3)cc2)[nH]1)C(C)C

EC50 [1]: > 10 nM
SMILES: COC(=O)N[C@H](C(=O)N1C[C@@H](n2cc(C(=O)OC)nn2)C[C@H]1c1ncc(-c2ccc(-c3ccc(-c4cnc([C@@H]5C[C@H](n6cc(C(=O)OC)nn6)CN5C(=O)[C@@H](NC(=O)OC)C(C)C)[nH]4)cc3)cc2)[nH]1)C(C)C

EC50 [1]: 0.0184 nM
SMILES: COC(=O)N[C@H](C(=O)N1C[C@H](N=[N+]=[N-])C[C@H]1c1ncc(-c2ccc(-c3ccc(-c4cnc([C@@H]5C[C@@H](N=[N+]=[N-])CN5C(=O)[C@@H](NC(=O)OC)C(C)C)[nH]4)cc3)cc2)[nH]1)C(C)C

EC50 [1]: 0.0118 nM
SMILES: COC(=O)N[C@H](C(=O)N1C[C@H](n2cc(C(=O)OC)nn2)C[C@H]1c1ncc(-c2ccc(-c3ccc(-c4cnc([C@@H]5C[C@@H](n6cc(C(=O)OC)nn6)CN5C(=O)[C@@H](NC(=O)OC)C(C)C)[nH]4)cc3)cc2)[nH]1)C(C)C

EC50 [1]: 0.05 nM
SMILES: COC(=O)N[C@H](C(=O)N1CCC[C@H]1c1nc(Br)c(-c2ccc(Oc3ccc(-c4[nH]c([C@@H]5CCCN5C(=O)[C@@H](NC(=O)OC)C(C)C)nc4Br)cc3)cc2)[nH]1)C(C)C
